# Measurements reported in PMC7909954 (eLife, 2021).
# Like-named read-outs stand apart in the source and are kept apart here.
# Tests used:
# KOR [1] = target: T1, KOR (Homo sapiens, UniProt P41145); conditions: for Log RA cAMP hKOR / LogRA Tango hKOR: transduction coefficient log(T/KA)
# MOR [2] = target: T2, MOR (Homo sapiens, UniProt P35372); experiment: cell-based; conditions: for Emax: HEK-293T, read-out: Emax% cAMP inhibition hMOR
# KOR [3] = target: T1, KOR; experiment: cell-based; conditions: for EC50: EC50 cAMP inhibition hKOR; for Emax: HEK-293T, read-out: Emax% cAMP inhibition hKOR
# KOR [4] = target: T1, KOR; experiment: cell-based; conditions: for Emax: HTLA, read-out: Emax% arrestin recruitment (Tango) hKOR
# MOR [5] = target: T2, MOR
# mMOR [6] = target: T3, mMOR (Mus musculus, UniProt P42866); experiment: biochemical
# T3 sequence (P42866 whole entry): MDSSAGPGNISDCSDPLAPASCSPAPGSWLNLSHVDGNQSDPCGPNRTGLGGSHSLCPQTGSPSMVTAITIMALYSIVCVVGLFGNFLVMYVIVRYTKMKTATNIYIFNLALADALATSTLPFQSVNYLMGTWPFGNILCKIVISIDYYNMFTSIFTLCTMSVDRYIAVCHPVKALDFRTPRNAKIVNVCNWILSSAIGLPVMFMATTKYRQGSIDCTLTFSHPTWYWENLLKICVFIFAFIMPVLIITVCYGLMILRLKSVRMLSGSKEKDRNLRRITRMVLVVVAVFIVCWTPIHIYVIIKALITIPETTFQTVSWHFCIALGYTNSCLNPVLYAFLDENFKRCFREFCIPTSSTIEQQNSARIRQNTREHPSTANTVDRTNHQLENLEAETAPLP
# mDOR [7] = target: T4, mDOR (Mus musculus, UniProt P32300); experiment: biochemical; conditions: read-out: Emax mDOR [35S]GTPγS
# T4 sequence (P32300 whole entry): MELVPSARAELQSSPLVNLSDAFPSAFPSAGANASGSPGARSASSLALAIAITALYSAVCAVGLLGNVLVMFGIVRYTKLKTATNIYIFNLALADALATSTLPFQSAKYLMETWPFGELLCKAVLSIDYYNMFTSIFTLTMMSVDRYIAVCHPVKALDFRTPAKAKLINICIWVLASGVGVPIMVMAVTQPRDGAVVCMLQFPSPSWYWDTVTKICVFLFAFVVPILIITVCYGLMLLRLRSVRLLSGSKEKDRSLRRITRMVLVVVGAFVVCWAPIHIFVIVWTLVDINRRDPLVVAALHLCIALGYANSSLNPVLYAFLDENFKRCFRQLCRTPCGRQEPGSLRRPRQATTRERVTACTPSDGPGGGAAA
# mDOR [8] = target: T4, mDOR; experiment: cell-based
# DOR [9] = target: T5, DOR (Homo sapiens, UniProt P41143); experiment: cell-based
# T5 sequence (P41143 whole entry): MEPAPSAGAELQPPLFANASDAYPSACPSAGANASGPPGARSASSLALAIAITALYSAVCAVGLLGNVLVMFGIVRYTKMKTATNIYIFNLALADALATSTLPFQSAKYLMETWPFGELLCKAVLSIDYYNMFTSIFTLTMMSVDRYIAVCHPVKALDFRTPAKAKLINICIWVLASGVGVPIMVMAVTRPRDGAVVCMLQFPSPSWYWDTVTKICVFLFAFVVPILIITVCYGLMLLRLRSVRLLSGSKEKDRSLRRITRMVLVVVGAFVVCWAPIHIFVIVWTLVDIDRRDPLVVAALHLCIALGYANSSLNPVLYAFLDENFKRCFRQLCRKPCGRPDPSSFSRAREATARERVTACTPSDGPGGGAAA
# rKOR = rKOR (Rattus norvegicus, UniProt P34975); experiment: cell-based
# Chain of rKOR (P34975 whole entry): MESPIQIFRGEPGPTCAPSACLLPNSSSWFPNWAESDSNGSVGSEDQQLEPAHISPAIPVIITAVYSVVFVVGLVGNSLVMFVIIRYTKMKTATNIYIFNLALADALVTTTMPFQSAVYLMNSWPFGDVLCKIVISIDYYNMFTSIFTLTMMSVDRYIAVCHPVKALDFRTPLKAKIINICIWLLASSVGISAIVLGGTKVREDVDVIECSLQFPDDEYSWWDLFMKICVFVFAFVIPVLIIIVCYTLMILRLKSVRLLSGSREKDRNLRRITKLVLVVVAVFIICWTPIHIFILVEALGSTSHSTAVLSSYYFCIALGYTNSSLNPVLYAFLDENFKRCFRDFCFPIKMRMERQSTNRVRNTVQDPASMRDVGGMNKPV
# MOR [10] = target: T2, MOR; experiment: cell-based
# mMOR [11] = target: T3, mMOR; experiment: biochemical; remark: listed apart in the source
# DOR [12] = target: T5, DOR; experiment: cell-based; remark: listed apart in the source
# mKOR [13] = target: T6, mKOR (Mus musculus, UniProt P33534); experiment: biochemical
# T6 sequence (P33534 whole entry): as the sequence (P34975 whole entry) above, with E11D, A17S, P51S, V308A counted along it
# mKOR [14] = target: T6, mKOR; experiment: biochemical; remark: listed apart in the source
# mMOR [15] = target: T3, mMOR; experiment: cell-based
# MOR [16] = target: T2, MOR; remark: listed apart in the source
# [17] = EC50 arrestin recruitment (Tango) hKOR
# T1 sequence (P41145 whole entry): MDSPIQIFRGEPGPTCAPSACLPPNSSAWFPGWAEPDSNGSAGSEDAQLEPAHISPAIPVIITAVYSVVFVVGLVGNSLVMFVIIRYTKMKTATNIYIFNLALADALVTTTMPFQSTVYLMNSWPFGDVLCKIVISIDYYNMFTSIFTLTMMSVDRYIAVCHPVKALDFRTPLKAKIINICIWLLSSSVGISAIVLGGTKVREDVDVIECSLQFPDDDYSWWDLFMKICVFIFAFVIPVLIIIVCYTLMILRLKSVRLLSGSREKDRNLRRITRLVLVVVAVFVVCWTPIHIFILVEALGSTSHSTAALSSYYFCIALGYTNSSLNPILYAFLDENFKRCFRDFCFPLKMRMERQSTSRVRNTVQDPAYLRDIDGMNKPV
# T2 sequence (P35372 whole entry): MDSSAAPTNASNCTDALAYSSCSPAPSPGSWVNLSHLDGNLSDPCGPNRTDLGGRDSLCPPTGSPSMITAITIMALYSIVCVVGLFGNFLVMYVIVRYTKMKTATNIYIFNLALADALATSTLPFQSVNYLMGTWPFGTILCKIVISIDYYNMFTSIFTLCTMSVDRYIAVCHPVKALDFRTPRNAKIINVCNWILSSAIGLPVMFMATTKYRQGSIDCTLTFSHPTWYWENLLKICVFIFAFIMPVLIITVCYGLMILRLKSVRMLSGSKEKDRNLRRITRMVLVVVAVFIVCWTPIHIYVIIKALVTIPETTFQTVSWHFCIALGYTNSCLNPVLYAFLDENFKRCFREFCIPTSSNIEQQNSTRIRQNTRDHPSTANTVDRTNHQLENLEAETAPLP
smiles,measurement,setting,value
"NCc1ccc(C(=O)N[C@@H]2CC[C@H]3[C@H]4Cc5ccc(O)c6c5[C@@]3(CCN4CC3CC3)[C@H]2O6)cc1 [MP1209, 4-(Aminomethyl)-N-((4R,4aR,7R,7aR,12bS)−3-(cyclopropylmethyl)−9-hydroxy-2,3,4,4a,5,6,7,7a-octahydro-1H-4,12-methano[1]benzofuro[3,2-e]isoquinolin-7-yl)benzamide]",ΔΔlog RA (cAMP-Tango) hKOR,KOR [1],-0.238±0.32
same,Log RA cAMP hKOR,KOR [1],10.55±0.06
same,LogRA Tango hKOR,KOR [1],8.735±0.220
same,ΔlogRA Tango hKOR,"KOR [1]; vs U50,488h",0.368±0.31
same,ΔlogRA cAMP hKOR,"KOR [1]; vs U50,488h",0.13±0.084
same,Emax,MOR [2],98.5 ± 0.96%
same,EC50,MOR [2]; pEC50 cAMP inhibition hMOR,0.245 nM
same,EC50,KOR [3],0.024 nM
same,Emax,KOR [3],100 ± 1.23%
same,Emax,KOR [4],67 ± 3%
same,EC50,"KOR [4]; pEC50 arrestin recruitment (Tango) hKOR, ± SEM",0.372 nM
same,arrestin recruitment at hMOR (in words),MOR [5],null arrestin recruitment
"CO[C@@]12CC[C@@H](NC(=O)c3cccc(I)c3)C3Oc4c(O)ccc5c4[C@@]31CCN(CC1CC1)C2C5 (stereo partly drawn) [MP1305, N-((4aS,7R,12bS)−3-(Cyclopropylmethyl)−9-hydroxy-4a-methoxy-2,3,4,4a,5,6,7,7a-octahydro-1H-4,12-methanobenzofuro[3,2-e]isoquinolin-7-yl)−3-iodobenzamide]",Ki,mMOR [6],0.25 ± 0.02 nM
same,Emax,mDOR [7],22 ± 0.9%
same,EC50,mDOR [8]; EC50 G protein activation (BRET) mDOR,40.4 nM
same,Emax,"mDOR [8]; HEK-293T, read-out: Emax% G protein activation (BRET) mDOR",105 ± 5.9%
same,ΔΔlog RA (cAMP-Tango) hKOR,KOR [1],0.55±0.04
same,Bias factor (cAMP-Tango) hKOR,"KOR [1]; >1 G protein bias, <1 arrestin bias, vs U50,488h",4
same,Log RA cAMP hKOR,KOR [1],9.22±0.012
same,LogRA Tango hKOR,KOR [1],7.17±0.025
same,ΔlogRA Tango hKOR,"KOR [1]; vs U50,488h",-1.341±0.036
same,ΔlogRA cAMP hKOR,"KOR [1]; vs U50,488h",-0.79±0.017
same,EC50,"DOR [9]; EC50 arrestin recruitment hDOR, Tango",228 nM
same,Emax,"DOR [9]; HTLA, read-out: Emax% arrestin recruitment hDOR",89 ± 2.8%
same,EC50,rKOR,5.04 nM
same,Emax,"rKOR; HEK-293T, read-out: Emax% G protein activation (BRET) rKOR",35 ± 3%
same,EC50,MOR [10],16.4 nM
same,Emax,"MOR [10]; HTLA, read-out: Emax% arrestin recruitment (Tango) hMOR",21 ± 3%
same,EC50,MOR [2]; EC50 cAMP inhibition hMOR,0.12 nM
same,Emax,MOR [2],69 ± 1.8%
same,EC50,"mMOR [11]; EC50 mMOR [35S]GTPγS, ± SEM",0.7 ± 0.1 nM
same,Emax,mMOR [11]; read-out: Emax mMOR [35S]GTPγS,81.2 ± 16%
same,EC50,KOR [3],0.72 nM
same,Emax,KOR [3],102 ± 1.2%
same,EC50,DOR [12]; EC50 cAMP inhibition hDOR,74.2 nM
same,Emax,"DOR [12]; HEK-293T, read-out: Emax% cAMP inhibition hDOR",71 ± 2.4%
same,EC50,KOR [4]; [17],25.7 nM
same,Emax,KOR [4],75 ± 1%
same,Ki,mKOR [13],2.5 ± 0.3 nM
same,EC50,"mKOR [14]; EC50 mKOR [35S]GTPγS, ± SEM",7.4 ± 1.8 nM
same,Emax,mKOR [14]; read-out: Emax mKOR [35S]GTPγS,42.2 ± 5.3%
same,EC50,mMOR [15]; EC50 G protein activation (BRET) mMOR,0.74 nM
same,Emax,"mMOR [15]; HEK-293T, read-out: Emax% G protein activation (BRET) mMOR",72 ± 2%
same,Bias factor (cAMP-Tango) hMOR,MOR [16],11
same,Log RA cAMP hMOR,MOR [16],9.79±0.053
same,LogRA Tango hMOR,MOR [16],6.89±0.048
same,ΔlogRA Tango hMOR,MOR [16],0.109±0.049
same,ΔlogRA cAMP hMOR,MOR [16],1.17±0.076
same,ΔΔlog RA (cAMP-Tango) hMOR,MOR [16],1.059±0.090
"O=C(N[C@@H]1CC[C@H]2[C@H]3Cc4ccc(O)c5c4[C@@]2(CCN3CC2CC2)[C@H]1O5)c1cccc(CO)c1 [MP1210, N-((4R,4aR,7R,7aR,12bS)−3-(cyclopropylmethyl)−9-hydroxy-2,3,4,4a,5,6,7,7a-octahydro-1H-4,12-methano[1]benzofuro[3,2-e]isoquinolin-7-yl)−3-(hydroxymethyl)benzamide]",ΔΔlog RA (cAMP-Tango) hKOR,KOR [1],-0.28±0.19
same,Log RA cAMP hKOR,KOR [1],10.59±0.06
same,LogRA Tango hKOR,KOR [1],8.576±0.156
same,ΔlogRA Tango hKOR,"KOR [1]; vs U50,488h",0.48±0.18
same,ΔlogRA cAMP hKOR,"KOR [1]; vs U50,488h",0.2±0.081
same,Emax,MOR [2],94.6 ± 0.98%
same,EC50,MOR [2]; pEC50 cAMP inhibition hMOR,0.155 nM
same,EC50,KOR [3],0.025 nM
same,Emax,KOR [3],101 ± 1.1%
same,EC50,KOR [4]; [17],1.16 nM
same,Emax,KOR [4],63 ± 3.3%
same,arrestin recruitment at hMOR (in words),MOR [5],null arrestin recruitment
